Source: ChEMBL document CHEMBL4699462, “Prenylated Flavonoids from the Roots of Tephrosia rhodesica” (J Nat Prod, 2020)

How the values were obtained:
Plasmodium falciparum = experiment: Antiplasmodial activity against chloroquine-sensitive Plasmodium falciparum 3D7 infected in human erythrocytes assessed as inhibition of parasite growth incubated for 72 hrs by DAPI staining based fluorescence analysis; assay type: functional, organism-based; conditions: 3D7, Erythrocyte
HEK293 = experiment: Cytotoxicity against human HEK293 cells at 40 uM; assay type: cell-based; conditions: hek293, 40 µM
[1] = Cytotoxicity against human HEK293 cells assessed as cell death; assay type: cell-based; conditions: read-out: LD50 (the source's name)

Compound | IC50 (Plasmodium falciparum) [µM] | Activity (HEK293) [%] | CC50 [1] [µM]
CC(C)=CCc1cc2c(cc1O)OC[C@@]1(O)c3cc4c(cc3O[C@@H]21)OCO4 | 10.2 | 27 | –
C=C(C)[C@H]1Cc2c(ccc3c2O[C@@H]2C(O)Oc4cc(OC)c(OC)cc4[C@@H]2C3=O)O1 (stereo partly drawn) | 8.6 | – | 10.9
COc1cc(OC)c2c(c1CC=C(C)C)O[C@H](c1ccccc1)C[C@H]2OC | 7.4 | 87 | –
COc1cc(OC)c2c(c1CC=C(C)C)O[C@H](c1ccccc1)C[C@H]2O | 14.5 | – | –
CC(C)=CCC1(CC=C(C)C)C(=O)C(=O)C2=C1O[C@H](c1ccccc1)C[C@H]2O (relative stereo) | 7 | 101 | –
CC(C)=CCC1(CC=C(C)C)C(=O)[C@](O)(CC=C(C)C)C(=O)C2=C1O[C@H](c1ccccc1)C[C@H]2O (relative stereo) | 5.7 | 34 | –
CC(C)=CCC1(CC=C(C)C)C(=O)[C@@](O)(CC=C(C)C)C(=O)C2=C1O[C@H](c1ccccc1)C[C@H]2O (relative stereo) | 7.3 | 71 | –
